Patent publication US10125135B2, “Chemical compounds” (AstraZeneca AB, priority 2016, dated 2018)
Values after ≈ are worked out from the molar mass of the structure shown.

Experiment: Thermodynamic solubility, shake-flask
Format: physicochemical
Conditions: thermodynamic from solid; aqueous phosphate buffer pH 7.4, 24 hours at 25° C.
Experimental: The thermodynamic solubility of a research compound is measured under standard conditions. It is a shake-flask approach that uses 10 mM DMSO solutions which are supplied from the Compound Managements liquid store and is a high throughput method. The dried compounds are equilibrated in an aqueous phosphate buffer (pH 7.4) for 24 hours at 25° C., the portion with the dissolved compound is then separated from the remains. The solutions are analyzed and quantified using UPLC/MS/MS, QC-samples are incorporated in each assay-run to ensure the quality of the assay.

Question: For COc1cc(OCCN2CC(CF)C2)ccc1[C@@H]1c2ccc3[nH]ncc3c2C[C@@H](C)N1CC(C)C [Example 9, (6S,8R)-6-(4-(2-(3-(fluoromethyl)azetidin-1-yl)ethoxy)-2-methoxyphenyl)-7-isobutyl-8-methyl-6,7,8,9-tetrahydro-3H-pyrazolo[4,3-f]isoquinoline], which solubility at 24 h is on record?
Answer: The solubility at 24 h was over 1000 µM.

Question: With C[C@@H]1Cc2c(ccc3[nH]ncc23)[C@@H](c2ccc(OCCN3CC(CF)C3)cn2)N1CC(F)F [Example 51, (6S,8R)-7-(2,2-difluoroethyl)-6-(5-(2-(3-(fluoromethyl)azetidin-1-yl)ethoxy)pyridin-2-yl)-8-methyl-6,7,8,9-tetrahydro-3H-pyrazolo[4,3-f]isoquinoline] as the compound, how does the solubility at 24 h read?
Answer: Its solubility at 24 h is 974 µM (≈ 448 µg/mL).

Question: Which solubility at 24 h does the source give for COc1cc(OCCN2CC(CF)C2)ccc1[C@@H]1c2ccc3[nH]ncc3c2C[C@@H](C)N1CC(C)(C)F [Example 5, (6S,8R)-7-(2-fluoro-2-methylpropyl)-6-(4-(2-(3-(fluoromethyl)azetidin-1-yl)ethoxy)-2-methoxyphenyl)-8-methyl-6,7,8,9-tetrahydro-3H-pyrazolo[4,3-f]isoquinoline] here?
Answer: The solubility at 24 h was 263 µM (≈ 131 µg/mL).

Question: Which solubility at 24 h does the source give for C[C@@H]1Cc2c(ccc3[nH]ncc23)[C@@H](c2ccc(OCCN3CC(CF)C3)cn2)N1CC(F)(F)F [Example 49, (6S,8R)-6-(5-(2-(3-(fluoromethyl)azetidin-1-yl)ethoxy)pyridin-2-yl)-8-methyl-7-(2,2,2-trifluoroethyl)-6,7,8,9-tetrahydro-3H-pyrazolo[4,3-f]isoquinoline] here?
Answer: The solubility at 24 h was over 1000 µM.

Question: With C[C@@H]1Cc2c(ccc3[nH]ncc23)[C@@H](c2ccc(OCCN3CC(CF)C3)cn2)N1CC1(F)CC1 [Example 8, (6S,8R)-7-((1-fluorocyclopropyl)methyl)-6-(5-(2-(3-(fluoromethyl)azetidin-1-yl)ethoxy)pyridin-2-yl)-8-methyl-6,7,8,9-tetrahydro-3H-pyrazolo[4,3-f]isoquinoline] as the compound, how does the solubility at 24 h read?
Answer: Its solubility at 24 h is over 1000 µM.

Question: With COc1cc(OCCN2CC(CF)C2)ccc1[C@@H]1c2ccc3[nH]ncc3c2C[C@@H](C)N1CC1(F)CC1 [Example 6, (6S,8R)-7-((1-fluorocyclopropyl)methyl)-6-(4-(2-(3-(fluoromethyl)azetidin-1-yl)ethoxy)-2-methoxyphenyl)-8-methyl-6,7,8,9-tetrahydro-3H-pyrazolo[4,3-f]isoquinoline] as the compound, how does the solubility at 24 h read?
Answer: Its solubility at 24 h is 957 µM (≈ 475 µg/mL).
